Experimental data: US20260146038A1, “NOVEL SALT OF DIMETHYL-2,3-DIHYDRO-1H-INDENE DERIVATIVE AND PROCESSES FOR PREPARING THE SAME” (YUHAN CORPORATION, priority 2022, published 2026)

Columns and labels:
Format in all cases: physicochemical
[1] = Stability test (accelerated condition); details: for Water contents: Karl Fischer; for Water contents / HPLC purity: accelerated condition (40±2° C., 75±5% RH)
Excerpt: The results obtained by measuring purities (the HPLC purities) and water contents (by Karl Fischer method) are shown in Table 1 below.

[2] = Hygroscopicity evaluation by Dynamic Vapor Sorption (DVS)
[3] = Water-solubility evaluation; details: 20° C.
[4] = Photostability test according to ICH guideline Q1B; details: for Water contents: Karl Fischer
Description: Photostability tests were carried out according to ICH guideline Q1B. […] The results obtained by measuring purities (the HPLC purities) and water contents (by Karl Fischer method) are shown in Table 2 below.

Row | Molecule | stability (form changes) in the accelerated condition ([1]; amorphous free base) | hygroscopicity (in words) ([2]; amorphous free base) | solubility [3] [µg/mL] | difference in the water contents under the accelerated condition ([1]; 40±2° C., 75±5% RH, up to 3 months) [%] | stability by XRD and appearance under the accelerated condition ([1]; 40±2° C., 75±5% RH, FIGS. 5 and 6) | Water contents ([1]; 1 month) [%] | Water contents ([1]; 3 months) [%] | Water contents ([1]; Initial) [%] | HPLC purity ([1]; 1 month) [%] | HPLC purity ([1]; 3 months) [%] | HPLC purity ([1]; Initial) [%] | HPLC purity ([4]; Initial) [%] | Water contents ([4]; Initial) [%] | Water contents ([4]; Light exposure (UV light for 10 hours / visible light for 40 hours)) [%] | HPLC purity ([4]; Light exposure (UV light 20 W/m^2 for 10 hours / visible light 30,000 lux for 40 hours)) [%] | Moisture adsorption ([2]; weight change, room temperature (about 25° C.), RH 80%, 24 hours) [%]
1 | CC(C)Oc1ccc(-c2ccc3c(c2)CC(C)(C)C3NC(=O)O[C@@H]2CN3CCC2CC3)cc1Cl (stereo partly drawn) [Compound of WO 2021/096238, (S)-quinuclidin-3-yl (5-(3-chloro-4-isopropoxyphenyl)-2,2-dimethyl-2,3-dihydro-1H-inden-1-yl)carbamate, reference compound] | low stability | high hygroscopicity | < 10 |  |  |  |  |  |  |  |  |  |  |  |  | 
2 | ((1S,4R)-7,7-dimethyl-2-oxobicyclo[2.2.1]heptan-1-yl)methanesulfonic acid salt of (S)-quinuclidin-3-yl ((R)-5-(3-chloro-4-isopropoxyphenyl)-2,2-dimethyl-2,3-dihydro-1H-inden-1-yl)carbamate [Example 1] |  |  |  | ≤ 1.0 | excellent stability | 0.32 | 1.28 | 0.48 | 98.6 | 98.6 | 98.6 | 98.6 | 0.48 | 0.31 | 98.6 | 2.3
